# Data reported in the supplement of paper PMC11208160.
# Experiment: recombinant UMI read abundance after kanamycin selection (control-corrected) (log10(CPM+1)); higher = more efficient recombination; extreme values may be limits of the assay; sequences stand for … in AGTGCAGAGAAAATCGGCCAGTTTTCTCTGCCTGCAGTCCGCATGCCGTGGGACCCCTTGGGTTCTAACCTGTTGCCTAGATTTATGCAGCGGACTGCCTTTCTCCCAAAGTGATAAACCGG…AGGTTGGTTTCACT; site = the 11-nt donor
# Outline: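 Reported values are log10(CPM+1) from a pooled Escherichia coli screen of donor and donor-binding-loop pairs for the IS621 bridge recombinase. Selection used IPTG (0.07 mM) plus kanamycin, against unselected plating, each in two replicates. Recombinant UMIs were amplified across the donor–target junction, sequenced, converted to CPM, averaged over replicates and scaled by control-derived factors.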
# 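Also: IS621 bridge recombinase in Escherichia coli cells against a fixed T5 target plasmid.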
row,Sequence,recombinant UMI read abundance (log10)
1,AGGACTACATGGACCGGTTTTCCCGGTAATCCGTATTTGAA (site AGGACTACTTT),1.13
2,AAGCACGCATGGACCGGTTTTCCCGGTAATCCGTATTTGGG (site AAGCACGCTTC),0.012
3,ACCGTAACATGGACCGGTTTTCCCGGTAATCCGTATTTGCA (site ACAGTATCTTG),1.49
4,AGCTAGCCATGGACCGGTTTTCCCGGTAATCCGTATTTGGA (site AGCTAGCCTTC),0.00495
5,GGCTACCCATGGACCGGTTTTCCCGGTAATCCGTATTTGTT (site GGCCACCCTAA),0.268
6,CACTTCGCATGGACCGGTTTTCCCGGTAATCCGTATTTGGA (site CACTTGGCTTC),0
7,CGATTATCATGGACCGGTTTTCCCGGTAATCCGTATTTGTT (site CGATTATCTAA),2.45
8,TATCAGGCATGGACCGGTTTTCCCGGTAATCCGTATTTGTG (site TATCAGGCTCA),0.113
9,TGCACACCATGGACCGGTTTTCCCGGTAATCCGTATTTGAC (site TGCACACCTGT),0.51
10,AAAATACCATGGACCGGTTTTCCCGGTAATCCGTATTTGAC (site AAAATACCTGT),0
11,TAATGGCCATGGACCGGTTTTCCCGGTAATCCGTATTTGCA (site CAATGGCCTTG),0.089
12,GCTCGTACATGGACCGGTTTTCCCGGTAATCCGTATTTGAT (site GCTCGTACTAT),1.1
13,CCGTTAGCATGGACCGGTTTTCCCGGTAATCCGTATTTGAG (site CCGTTAGCTCA),0.0714
14,CCCTTGGCATGGACCGGTTTTCCCGGTAATCCGTATTTGGA (site CCCTTGGCTTC),0.107
15,CGGGAACCATGGACCGGTTTTCCCGGTAATCCGTATTTGTT (site CGGAATCCTAA),0
16,CCTACAACATGGACCGGTTTTCCCGGTAATCCGTATTTGAA (site CCTACAACTTT),0.0165
17,ATCTATACATGGACCGGTTTTCCCGGTAATCCGTATTTGCC (site ATCTATACTGT),0.46
18,TAGCCTTCATGGACCGGTTTTCCCGGTAATCCGTATTTGGT (site TAGCCTTCTAC),0.00564
19,CCCATCTCATGGACCGGTTTTCCCGGTAATCCGTATTTGTC (site CCCATTTCTGA),0
20,GTACGAGCATGGACCGGTTTTCCCGGTAATCCGTATTTGCA (site GTACGAGCTTG),2.55
21,GTGCATGCATGGACCGGTTTTCCCGGTAATCCGTATTTGGT (site GTGGATGCTAC),0.00465
22,TCCAATTCATGGACCGGTTTTCCCGGTAATCCGTATTTGCC (site TCCAAATCTGG),0
23,TACATGACATGGACCGGTTTTCCCGGTAATCCGTATTTGCG (site TACATGACTCG),1.12
24,TAAACCGCATGGACCGGTTTTCCCGGTAATCCGTATTTGCG (site TAAACCGCTCG),1.29
25,CGGACATCATGGACCGGTTTTCCCGGTAATCCGTATTTGCA (site CGGACATCTGG),0

row,Sequence,recombinant UMI read abundance (log10)
1,AGCTTGCCATGGACCGGTTTTCCCGGTAATCCGTATTTGAT (site AGCTTGCCTAT),0.0115
2,ACATTATCATGGACCGGTTTTCCCGGTAATCCGTATTTGCA (site ACAATATCTTG),1.92
3,CAAAGTCCATGGACCGGTTTTCCCGGTAATCCGTATTTGTA (site CAAAGTCCTTA),2.04
4,TAATTCGCATGGACCGGTTTTCCCGGTAATCCGTATTTGTG (site TAATTCGCTCA),0.0276
5,GAGATCACATGGACCGGTTTTCCCGGTAATCCGTATTTGGT (site GAGATCACTAC),1.37
6,CGGAAGCCATGGACCGGTTTTCCCGGTAATCCGTATTTGAT (site CGGAATCCTAA),0
7,AGTTAGACATGGACCGGTTTTCCCGGTAATCCGTATTTGCA (site AGTTAGACTTG),1.93
8,TAGCCTTCATGGACCGGTTTTCCCGGTAATCCGTATTTGGT (site TAGCCTTCTAA),0.0101
9,CAGCCGACATGGACCGGTTTTCCCGGTAATCCGTATTTGGG (site CAGGCGACTCC),0.0119
10,CTGATACCATGGACCGGTTTTCCCGGTAATCCGTATTTGCT (site CTGTTACCTAG),0
11,AACTGTCCATGGACCGGTTTTCCCGGTAATCCGTATTTGTG (site AACTGTCCTCA),0.0176
12,CCTTGACCATGGACCGGTTTTCCCGGTAATCCGTATTTGAG (site CCTTGACCTCT),0.0135
13,AAGCACGCATGGACCGGTTTTCCCGGTAATCCGTATTTGGG (site AAGCTCGCTCC),0.0309
14,TATTCGGCATGGACCGGTTTTCCCGGTAATCCGTATTTGTG (site TATTCGGCTCA),0.131
15,CAATTCCCATGGACCGGTTTTCCCGGTAATCCGTATTTGCA (site CAATTCCCTGG),0
16,CACCGCGCATGGACCGGTTTTCCCGGTAATCCGTATTTGTC (site CACCGCGCTGA),2.33
17,TGTTCCCCATGGACCGGTTTTCCCGGTAATCCGTATTTGTA (site TGTTCCCCTTA),0.625
18,CACTCCCCATGGACCGGTTTTCCCGGTAATCCGTATTTGCC (site CACTCCCCTGG),1.23
19,AGGAGTACATGGACCGGTTTTCCCGGTAATCCGTATTTGAC (site AGGAATACTGT),1.29
20,TGGACACCATGGACCGGTTTTCCCGGTAATCCGTATTTGAC (site TGCACACCTGT),0
21,TAGCCTTCATGGACCGGTTTTCCCGGTAATCCGTATTTGGT (site TAACCTTCTAC),0
22,TGAGCTGCATGGACCGGTTTTCCCGGTAATCCGTATTTGTG (site TTAGCTGCTCA),0.0107
23,CCAGAATCATGGACCGGTTTTCCCGGTAATCCGTATTTGTG (site CCAGAATCTCA),2.13
24,CCTGGAACATGGACCGGTTTTCCCGGTAATCCGTATTTGTT (site CGTGGAACTAA),0.00754
25,CGAGAGTCATGGACCGGTTTTCCCGGTAATCCGTATTTGCC (site CGCGAGTCTGG),0

row,Sequence,recombinant UMI read abundance (log10)
1,AGAGTGGCATGGACCGGTTTTCCCGGTAATCCGTATTTGGT (site AGAGTGGCTAC),1.47
2,AATGTCACATGGACCGGTTTTCCCGGTAATCCGTATTTGCT (site AATGTTACTAG),0.647
3,CCAGTATCATGGACCGGTTTTCCCGGTAATCCGTATTTGAC (site CAAGTATCTGT),0.983
4,TTTTCCCCATGGACCGGTTTTCCCGGTAATCCGTATTTGTA (site TTTTCCCCTTA),0.0384
5,ACTAGAACATGGACCGGTTTTCCCGGTAATCCGTATTTGAG (site ACTAAAACTCT),0.908
6,GGGACTCCATGGACCGGTTTTCCCGGTAATCCGTATTTGAG (site TACGTATCTTC),0.0126
7,TTTGCGGCATGGACCGGTTTTCCCGGTAATCCGTATTTGGT (site TTTGCGGCTAA),0.0207
8,CTAACCCCATGGACCGGTTTTCCCGGTAATCCGTATTTGTA (site CTAACCCCTTA),1.67
9,GAGCTAACATGGACCGGTTTTCCCGGTAATCCGTATTTGAT (site GAGCTAACTAT),2.46
10,ACTAGACCATGGACCGGTTTTCCCGGTAATCCGTATTTGGA (site ACTAGACCTTC),0.014
11,CAAGTGACATGGACCGGTTTTCCCGGTAATCCGTATTTGGG (site CAAGTTACTCC),0.48
12,GCTTGCCCATGGACCGGTTTTCCCGGTAATCCGTATTTGGT (site GCTTGCCCTAA),0.00835
13,AAACAGACATGGACCGGTTTTCCCGGTAATCCGTATTTGAC (site AAACAGACTGT),2.57
14,TGAGCTGCATGGACCGGTTTTCCCGGTAATCCGTATTTGTG (site TAAGCTGCTCA),0.038
15,CTCCCTCCATGGACCGGTTTTCCCGGTAATCCGTATTTGAG (site CTCCCTTCTCT),0.0108
16,TGTCCAACATGGACCGGTTTTCCCGGTAATCCGTATTTGTA (site AGTCCAACTTA),0.0568
17,TACTTGACATGGACCGGTTTTCCCGGTAATCCGTATTTGCC (site TACTTGACTTG),0.00491
18,CCGAGTCCATGGACCGGTTTTCCCGGTAATCCGTATTTGAA (site CCGAGTCCTTT),0.417
19,AGGACGACATGGACCGGTTTTCCCGGTAATCCGTATTTGAC (site AGGACCACTGT),0.378
20,CTTGGAACATGGACCGGTTTTCCCGGTAATCCGTATTTGTT (site CGTGGAACTAA),0.00508
21,CGGGAACCATGGACCGGTTTTCCCGGTAATCCGTATTTGAG (site CGGGAACCTGT),0
22,TAGCCTTCATGGACCGGTTTTCCCGGTAATCCGTATTTGGT (site TAGCCTTCTTC),0.0121
23,GTATGCACATGGACCGGTTTTCCCGGTAATCCGTATTTGTA (site ATATGCACTTA),0.664
24,TAAAGACCATGGACCGGTTTTCCCGGTAATCCGTATTTGTA (site TAAAGTCCTTA),0.166
25,GATAAGGCATGGACCGGTTTTCCCGGTAATCCGTATTTGCG (site GATAAGGCTCG),1.83
